Experimental findings from patent US20120004214A1 (priority 2009, published 2012) are described below.

As a reminder, the pIC50 is the IC50 on a negative log10 scale, so that one unit is a factor of ten. A low value points to a high IC50.

This test addresses α7-subtype of nicotinic receptors (Rattus norvegicus, UniProt Q05941). The test is described as follows: biochemical. It counts as binding.

pIC50: −log10 of the molar value.

Sequence of α7-subtype of nicotinic receptors (Q05941 23-502): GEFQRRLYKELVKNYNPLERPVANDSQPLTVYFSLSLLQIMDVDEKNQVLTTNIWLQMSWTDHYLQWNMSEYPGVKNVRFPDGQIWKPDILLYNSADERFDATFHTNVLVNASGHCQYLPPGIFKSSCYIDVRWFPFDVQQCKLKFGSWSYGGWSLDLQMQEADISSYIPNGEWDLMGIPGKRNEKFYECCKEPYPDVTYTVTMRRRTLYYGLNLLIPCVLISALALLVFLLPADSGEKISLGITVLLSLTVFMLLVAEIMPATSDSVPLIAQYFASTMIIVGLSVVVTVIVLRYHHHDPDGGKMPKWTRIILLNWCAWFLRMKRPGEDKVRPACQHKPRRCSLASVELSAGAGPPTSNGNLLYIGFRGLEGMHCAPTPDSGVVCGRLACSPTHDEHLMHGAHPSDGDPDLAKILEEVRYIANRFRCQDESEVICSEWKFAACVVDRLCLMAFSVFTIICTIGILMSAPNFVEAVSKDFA

`[O-][N+]12CCC(CC1)N(c1ncc(-c3ccc4[nH]ccc4c3)cn1)CC2` [Compound 1, 4-[5-(1H-Indol-5-yl)-pyrimidin-2-yl]-1,4-diaza-bicyclo[3.2.2]nonane 1-oxide] showed a negative-log IC50 (pIC50) of over 7.40.
